{"source": "paper PMC8371461", "about": "(Frontiers in Pharmacology, 2021)", "assay_type_in_all_cases": "binding", "key": {"CDKL1": {"biological_target": "T1, CDKL1 (Homo sapiens, UniProt Q00532)", "T1 construct": "purchased DiscoverX (KINOMEscan)", "assay": "kinome scan", "conditions": "10 µM"}, "DYRK2": {"biological_target": "T2, DYRK2 (Homo sapiens, UniProt Q92630)", "T2 construct": "purchased DiscoverX (KINOMEscan)", "T2 sequence (Q92630 1-601)": "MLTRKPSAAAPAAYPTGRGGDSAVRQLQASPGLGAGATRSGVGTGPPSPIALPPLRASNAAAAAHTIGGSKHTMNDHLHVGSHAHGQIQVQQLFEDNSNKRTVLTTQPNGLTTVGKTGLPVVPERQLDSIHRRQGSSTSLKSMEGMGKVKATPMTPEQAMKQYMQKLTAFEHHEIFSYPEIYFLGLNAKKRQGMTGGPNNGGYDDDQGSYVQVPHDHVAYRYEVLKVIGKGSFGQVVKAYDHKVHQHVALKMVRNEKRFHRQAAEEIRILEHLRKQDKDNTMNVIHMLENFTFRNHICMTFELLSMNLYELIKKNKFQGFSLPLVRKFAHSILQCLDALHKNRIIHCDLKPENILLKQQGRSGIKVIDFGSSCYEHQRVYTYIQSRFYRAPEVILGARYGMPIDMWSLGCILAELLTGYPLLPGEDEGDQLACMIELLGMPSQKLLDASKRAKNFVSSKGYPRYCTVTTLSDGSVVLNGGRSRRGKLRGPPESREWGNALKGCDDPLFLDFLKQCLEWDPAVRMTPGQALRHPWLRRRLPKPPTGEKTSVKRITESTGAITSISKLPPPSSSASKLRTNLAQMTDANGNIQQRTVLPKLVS", "assay": "Kd select analysis (DiscoverX)", "description": "(§1) Hits are identified by an ultra-sensitive quantitative PCR detecting the specific DNA tag linked to each kinase (Supplementary Figure S2). The drug is used at a concentration of 10 µM and results are expressed as the percentage of signal (kinase PCR detection) with respect to DMSO control conditions. Thirteen hits were identified, with a signal reduction ranging from 0 to 27% (Table 3). Full raw data are presented in Supplementary Table S4. Interactions between 0 and 20% of reduction were considered to be the most significant ones. […] A sub-micromolar affinity (Kd<1 µM) was only seen with two PIKs (PIP4K2C, PI4KB) and GAK (Table 4). Inhibitions curves from these compounds are shown in Supplementary Figure S3."}, "GAK": {"biological_target": "T3, GAK (Homo sapiens, UniProt O14976)", "T3 construct": "T7 phage fusion (kinase-tagged phage); purchased DiscoverX; host or cells: BL21-derived E. coli (T7 phage)", "T3 sequence (O14976 1-1311)": "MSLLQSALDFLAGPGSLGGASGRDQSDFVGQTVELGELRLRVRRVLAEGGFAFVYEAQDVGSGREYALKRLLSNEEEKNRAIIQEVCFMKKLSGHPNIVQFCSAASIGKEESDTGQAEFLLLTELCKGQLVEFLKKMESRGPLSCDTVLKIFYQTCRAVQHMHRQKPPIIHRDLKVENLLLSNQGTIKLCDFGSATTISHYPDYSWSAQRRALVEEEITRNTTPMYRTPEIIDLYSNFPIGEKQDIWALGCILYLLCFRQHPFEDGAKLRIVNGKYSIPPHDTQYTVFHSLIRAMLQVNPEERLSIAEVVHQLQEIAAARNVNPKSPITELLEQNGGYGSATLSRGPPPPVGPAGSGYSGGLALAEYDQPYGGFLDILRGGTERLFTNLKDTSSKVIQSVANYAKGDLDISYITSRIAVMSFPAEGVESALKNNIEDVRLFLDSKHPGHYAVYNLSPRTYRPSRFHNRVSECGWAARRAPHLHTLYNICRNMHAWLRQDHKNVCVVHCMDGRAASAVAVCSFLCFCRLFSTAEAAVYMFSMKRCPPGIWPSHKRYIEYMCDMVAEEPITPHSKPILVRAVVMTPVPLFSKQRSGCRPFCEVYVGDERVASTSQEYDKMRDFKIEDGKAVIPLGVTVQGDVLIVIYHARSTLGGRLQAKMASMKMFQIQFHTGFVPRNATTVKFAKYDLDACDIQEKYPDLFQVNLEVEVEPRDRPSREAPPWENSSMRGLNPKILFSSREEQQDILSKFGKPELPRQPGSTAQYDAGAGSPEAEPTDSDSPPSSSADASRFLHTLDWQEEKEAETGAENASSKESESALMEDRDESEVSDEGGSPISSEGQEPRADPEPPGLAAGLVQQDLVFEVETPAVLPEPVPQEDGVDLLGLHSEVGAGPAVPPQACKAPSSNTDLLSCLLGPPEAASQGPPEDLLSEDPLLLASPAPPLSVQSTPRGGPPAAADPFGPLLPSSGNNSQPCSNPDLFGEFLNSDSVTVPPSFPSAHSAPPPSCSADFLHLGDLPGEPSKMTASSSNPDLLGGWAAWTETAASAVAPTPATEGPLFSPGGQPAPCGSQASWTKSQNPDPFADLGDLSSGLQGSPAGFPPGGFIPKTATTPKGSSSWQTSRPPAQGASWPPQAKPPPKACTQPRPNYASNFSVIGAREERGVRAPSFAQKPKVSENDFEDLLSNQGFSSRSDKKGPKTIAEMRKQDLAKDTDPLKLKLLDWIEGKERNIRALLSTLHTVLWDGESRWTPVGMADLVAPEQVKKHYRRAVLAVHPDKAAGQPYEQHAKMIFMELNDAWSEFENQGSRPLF", "assay": "Kd select analysis (DiscoverX)", "description": "as §1"}, "FER": {"biological_target": "T4, FER (Homo sapiens, UniProt P16591)", "T4 construct": "purchased DiscoverX (KINOMEscan)", "assay": "kinome scan", "conditions": "10 µM"}, "HIPK1": {"biological_target": "T5, HIPK1 (Homo sapiens, UniProt Q86Z02)", "T5 construct": "purchased DiscoverX (KINOMEscan)", "assay": "kinome scan", "conditions": "10 µM"}, "FLT3(D835H)": {"biological_target": "T6, FLT3(D835H) (Homo sapiens, UniProt P36888, D835H)", "T6 construct": "purchased DiscoverX (KINOMEscan)", "assay": "kinome scan", "conditions": "10 µM"}, "OSR1": {"biological_target": "T7, OSR1 (Homo sapiens, UniProt O95747)", "T7 construct": "purchased DiscoverX (KINOMEscan)", "assay": "kinome scan", "conditions": "10 µM"}, "PKNB(M.tuberculosis)": {"biological_target": "T8, PKNB(M.tuberculosis) (Mycobacterium tuberculosis, UniProt P9WI81)", "T8 construct": "purchased DiscoverX (KINOMEscan)", "assay": "kinome scan", "conditions": "10 µM"}}, "note": "pKd: −log10 of the molar value. Read-outs that look alike come from different tables or passages of the source.", "data": [{"compound": "Nc1ccc(N=Nc2ccccc2)c(N)n1", "note": "[phenazopyridine, 2,6-diamino-3-(phenylazo)pyridine]", "values": [{"measurement": "kinase inhibition", "setting": "CDKL1", "result": 100}, {"measurement": "pKd", "setting": "DYRK2", "result": 5.30}, {"measurement": "Kd", "setting": "GAK; Phenazopyridine Kd (nM)", "result": 760, "unit": "nM"}, {"measurement": "pKd", "setting": "GAK; sub-micromolar affinity, read-out: Kd", "result": "> 6.00"}, {"measurement": "kinase inhibition", "setting": "FER", "result": 100}, {"measurement": "kinase inhibition", "setting": "HIPK1", "result": 58}, {"measurement": "remaining binding (% of control)", "setting": "FLT3(D835H)", "result": 81}, {"measurement": "kinase inhibition", "setting": "OSR1", "result": 100}, {"measurement": "remaining binding (% of control)", "setting": "PKNB(M.tuberculosis)", "result": 96}]}]}
